From paper PMC3682882 (BMC Pharmacology & Toxicology, 2013)

Tests used:
subjects with T2DM [1] = test: Clinical safety and tolerability (adverse events, laboratory parameters, vital signs); format: in vivo, human; settings: N = 13
Experimental: (§1) For each treatment period, subjects were admitted to the clinical facility on the evening of Day -1 to undergo check-in procedures including a physical examination, 12-lead ECG, vital signs, clinical laboratory tests (chemistry, hematology and urinalysis), lactic acid measurement, fasting blood glucose measurement, alcohol screen, drugs of abuse screen and pregnancy test (if applicable). On each study day morning, a fasting blood sugar measurement was determined by glucose monitor. On Days 1 and 2, vital signs and a 12-lead ECG were recorded. Samples for clinical laboratory measure were also taken on Days 1 and 3. Subjects returned to the clinic 7–10 days following the last dosing day for a follow-up physical examination and laboratory evaluation. During the between-treatment intervals, subjects were provided with glucose monitors to measure fasting blood glucose concentrations; subjects were instructed as to how to recognize and treat symptoms of hypoglycemia. Adverse events were monitored throughout the entire study (randomization to follow-up visit). Any adverse events reported during the study were assessed by the investigator for intensity (mild, moderate, severe) and relationship to the study drug (causality). Where possible, all adverse events were followed until stabilization, resolution, or until the event was otherwise explained.

subjects with T2DM [2] = test: Fasting plasma glucose change from baseline; format: in vivo, human; settings: baseline pre-dose Day 1 to Day 2 and Day 3
Experimental: FPG concentrations were collected on Day -1, 1, 2 and 3. Changes in plasma glucose from baseline (Day 1) to Day 2 and 3 were calculated.

subjects with T2DM [3] = test: 24-hour urine glucose excretion in subjects with T2DM; format: in vivo, human
Experimental: Urine was collected on Days 1 to 3 of each treatment period, and urine glucose concentrations were analyzed for the following intervals: 0–4 hours, 4–8 hours, 8–12 hours and 12–24 hours. The quantity of glucose and creatinine excreted in urine was determined by multiplying the urine glucose or creatinine concentration for each time interval by the volume of urine for the corresponding collection interval. The total 24-hour quantity of glucose excreted in urine on Day 2 was calculated by adding the amounts collected during each interval. Urine glucose and creatinine amounts were summarized for each collected interval and for the total 24-hour collection period.

clinical = test: clinical
Excerpt: Subjects were randomized to receive one of two treatment sequences depicted in Table 1. […] The last dose of drug for each study period was before breakfast on day 3. […] On the evening before each treatment period, subjects were admitted and confined to the clinical site for the duration of the 3-day treatment period. Pharmacokinetic (PK), pharmacodynamic (PD; urine glucose and FPG), and safety (adverse events, vital signs, ECG, clinical laboratory parameters including lactic acid) assessments were performed at check-in and throughout the treatment periods. For each treatment period, the PK sampling occurred on Day 3.
All sample times are relative to the time of the administration of the first dose of study medication on Day 3 of each period. […] Blood samples for remogliflozin etabonate, remogliflozin and GSK279782 were collected into tubes containing potassium-oxalate/ sodium fluoride, placed on ice and centrifuged at approximately 3000 rpm for 10 minutes at approximately 4°C. The harvested plasma was frozen at -70°C until analysis for remogliflozin etabonate, remogliflozin and GSK279782 concentrations.
The concentrations of remogliflozin etabonate, remogliflozin, and GSK279782 in deproteinized plasma samples and standards were determined by high-performance liquid chromatography (HPLC) with tandem mass spectrometry (MS/MS) using isotopically labelled internal standards ([^2H7]- remogliflozin etabonate, [^2H7]- remogliflozin and [^2H7]-GSK279782 as previously described.
Plasma proteins from a […] plasma aliquot were precipitated using acetonitrile containing the internal standard (200 ng mL-1). Samples were vortex mixed then centrifuged. The resulting supernatant was transferred and mixed with […] of HFBA buffer (water containing 10 mM ammonium acetate and 0.26% (v/v) of heptofluorobutyric acid) prior to injection. HPLC was performed on a Shimadzu LC-10A HPLC system. Chromatography was performed on a MAC-MOD Ace 3 C18, 4.6 × 50 mm column at a flow rate of 1.0 mL min-1. An isocratic mobile phase elution with 82:18 (v/v) HFBA buffer : Acetonitrile was used. Samples were analysed in positive ion mode by Turbo Ionspray LC/MS/MS with a PE/Sciex API 3000. The calibration range was 20 to 5000 ng mL-1. Performance of the method was assessed during a 3 day validation study using quality control samples at 5 concentrations 20, 80, 500, 4000 and 5000 ng mL-1.
Actual elapsed time from dosing was used to estimate all individual plasma PK parameters.
• Cmax and tmax were the actual observed values.
• AUC(0–12) or AUC(0–last) was calculated by a combination of linear and logarithmic trapezoidal methods. The linear trapezoidal method was used for all incremental trapezoids arising from increasing concentrations and the logarithmic trapezoidal method was used for those arising from decreasing concentrations.

[4] = Statistical comparison of PK parameters with and without co-administered drug (drug-drug interaction); format: in vivo, human
Experimental: Safety and PD parameters were summarized using descriptive statistics. […] The PROC MIXED from SAS (Version 8.2, Cary, NC, USA) was used to fit the model. The estimates and the 90% CI were exponentiated in order to obtain the ratio of geometric means and its CI. The assumptions underlying the model were assessed by visual inspection of residual plots. […] Tmax was analysed non-parametrically using Hodges–Lehmann method.

subjects with T2DM [5] = test: Percent of filtered glucose excreted in the urine; format: in vivo, human; settings: for percent filtered glucose excreted in urine, max / percent filtered glucose excreted in urine, mean (SD) / percent filtered glucose excreted in urine, median / percent filtered glucose excreted in urine, min: Day 2, N = 13; for percent of filtered glucose excreted in the urine, mean: combined 24 hour collection, Day 2
Experimental: Creatinine clearance (CLcr) was calculated on Day 2 and used to determine the percent of filtered glucose load excreted in urine. By using the urine collections on Day 2, CLcr was calculated as follows:
Clcr=totalamountofurinecreatinine0-xxhinterval/nearestassociatedserumcreatinine=urinecreatininemg/xxhours/serumcreatininemg/dL*100mL/dL/xx*60minutes/xxhours,
where urine creatinine (mg/xx hours) is the amount of […] excreted in a xx-hour period. Urine creatinine was calculated by multiplying the urine creatinine concentration by the urine volume (mL) for a 0-xxh time interval as follows:
urinecreatininemg/xxhours=urinecreatinineconcentrationmg/dL*intervalvolumemL/100mL/dL.
Percent of filtered glucose excreted in the urine was estimated for all collection intervals on Day 2 as follows:
GlucoseAmountExcreted/Clcr*PG*TimeIntervalorUrineglucosemg/dL*SerumCreatininemg/dL/urinecreatininemg/dL*PGmg/dL
where glucose amount excreted is the amount of glucose excreted during the xx-hour period, and CLcr is calculated for the xx-hour time interval. PG is the plasma glucose concentration reported closest to the midpoint of the time interval. Because only pre-dose PG was collected in this study, the pre-dose PG on Day 2 was used. Time interval is the number of minutes of urine collection for that interval.

subjects with T2DM [6] = test: Fluid intake, urine volume and fluid balance; format: in vivo, human; settings: Day 1, 0–24-hour interval, intake minus output
Excerpt: Total fluid intake, urine volume, and fluid balance (intake minus output) were summarized over the 0–24-hour interval of Day 1 and Day 2 and the 0–12-hour interval of Day 3 of each treatment period.

subjects with T2DM [7] = test: Lactic acid concentration by treatment; format: in vivo, human; settings: during the three day treatment period
Experimental: as §1

[8] = cited from earlier work
rats = settings: cited from earlier work
[9] = tested on: healthy subjects and subjects with T2DM; set-up: method as in PMID 21733056, PMID 23668634; settings: single oral doses up to 1000 mg in healthy subjects, up to 1000 mg BID for 2 weeks in T2DM; cited from earlier work
[10] = tested on: panel of metabolic enzymes and transporters, including organic cation transporters; set-up: method as in earlier work; settings: panel including organic cation transporters involved with metformin renal secretion; cited from earlier work
mice = settings: cited from earlier work
diabetic rodent models = settings: several diabetic rodent models; cited from earlier work
[11] = treatment for 2 weeks, subjects with T2DM; cited from earlier work
[12] = human, in vivo, 500 mg, AUC(0–12)

Row | Compound | Abdominal pain upper (subjects with T2DM [1]) | Any Event (subjects with T2DM [1]) | Back pain (subjects with T2DM [1]) | Dizziness (subjects with T2DM [1]) | Dyspepsia (subjects with T2DM [1]) | Fatigue (subjects with T2DM [1]) | Headache (subjects with T2DM [1]) | Hypoglycemia (subjects with T2DM [1]) | Muscle spasms (subjects with T2DM [1]) | Nasopharyngitis (subjects with T2DM [1]) | Neck pain (subjects with T2DM [1]) | Osteoarthritis (subjects with T2DM [1]) | Rash (subjects with T2DM [1]) | Toothache (subjects with T2DM [1]) | Wound (subjects with T2DM [1]) | changes in fasting plasma glucose concentrations from baseline (subjects with T2DM [2]) | 24-hour urine glucose, max (subjects with T2DM [3]; Day 2, N = 13) | 24-hour urine glucose, median (subjects with T2DM [3]; Day 2, N = 13) | 24-hour urine glucose, min (subjects with T2DM [3]; Day 2, N = 13) | Cmax (clinical; human, in vivo) | other results
1 | CN(C)C(=N)N=C(N)N [Metformin, reference compound] | 0 n (%) | 5 (38%) n (%) | 2 (15%) n (%) | 1 (8%) n (%) | 0 n (%) | 1 (8%) n (%) | 2 (15%) n (%) | 1 (8%) n (%) | 1 (8%) n (%) | 0 n (%) | 1 (8%) n (%) | 0 n (%) | 0 n (%) | 1 (8%) n (%) | 0 n (%) | remained relatively stable | 43.9 mmol | 10.9 mmol | 1.1 mmol | 1020 ng/mL | effect on urine glucose output (subjects with T2DM [3]; Day 2): relatively no effect; 24-hour urine glucose, mean (SD) (subjects with T2DM [3]; Day 2, N = 13): 13.6 (13.4) mmol; AUC(0-t) (clinical; [12]): 7140 ng·h/mL; Tmax (clinical; plasma, Day 3, MET BID, median (range)): 4.0 (1.0 - 6.0) h; effect of remogliflozin etabonate on PK parameters ([4]; metformin PK with MET + RE vs MET): no effect; percent filtered glucose excreted in urine, max (subjects with T2DM [5]): 4.71%; percent filtered glucose excreted in urine, mean (SD) (subjects with T2DM [5]): 1.41 (1.52) percent; percent filtered glucose excreted in urine, median (subjects with T2DM [5]): 0.95%; percent filtered glucose excreted in urine, min (subjects with T2DM [5]): 0.10%; percent of filtered glucose excreted in the urine, mean (subjects with T2DM [5]): 1.4%; fluid balance (median) (subjects with T2DM [6]): -775 mL; mean lactate concentrations (subjects with T2DM [7]): increase or increasing trend; renal excretion [8]: 3 times the glomerular filtration rate
2 | CCOC(=O)OC[C@H]1O[C@@H](Oc2nn(C(C)C)c(C)c2Cc2ccc(OC(C)C)cc2)[C@H](O)[C@@H](O)[C@@H]1O [Remogliflozin etabonate] | 1 (8%) n (%) | 2 (15%) n (%) | 0 n (%) | 0 n (%) | 0 n (%) | 0 n (%) | 0 n (%) | 0 n (%) | 1 (8%) n (%) | 0 n (%) | 0 n (%) | 0 n (%) | 0 n (%) | 0 n (%) | 0 n (%) | small decreases | 796 mmol | 497 mmol | 384 mmol | 79.5 ng/mL | urinary glucose excretion (rats): increase urinary glucose excretion in a dose-dependent manner; Tmax (clinical; human, in vivo): 3 h; AUC(0-t) (clinical; human, in vivo, AUC(0–last)): 98.9 ng·h/mL; AUC(0-last) point estimate (GLSM Ratio) ([4]; MET + RE / RE): 1.00; Cmax point estimate (GLSM Ratio) ([4]; MET + RE / RE): 0.85; decrease in Cmax ([4]; MET + RE compared to remogliflozin etabonate alone): 15%; effect of metformin on AUC ([4]; MET + RE vs remogliflozin etabonate alone): no effects; percent filtered glucose excreted in urine, max (subjects with T2DM [5]): 61.3%; percent filtered glucose excreted in urine, mean (SD) (subjects with T2DM [5]): 51.3 (7.02) percent; percent filtered glucose excreted in urine, median (subjects with T2DM [5]): 51.8%; percent filtered glucose excreted in urine, min (subjects with T2DM [5]): 38.4%; percent of filtered glucose excreted in the urine, mean (subjects with T2DM [5]): approximately 50%; fluid balance (median) (subjects with T2DM [6]): -1145 mL; safety and tolerability [9]: safe and well tolerated; mean lactate concentrations (subjects with T2DM [7]): unchanged or decreased slightly; inhibition of metabolic enzymes and transporters [10]: lack of inhibition; urinary glucose excretion (mice): increase urinary glucose excretion in a dose-dependent manner; antidiabetic efficacy (diabetic rodent models): exhibit antidiabetic efficacy
3 | Cc1c(Cc2ccc(OC(C)C)cc2)c(O[C@@H]2O[C@H](CO)[C@@H](O)[C@H](O)[C@H]2O)nn1C(C)C [Remogliflozin] | – | – | – | – | – | – | – | – | – | – | – | – | – | – | – | – | – | – | – | 2690 ng/mL | Tmax (clinical; human, in vivo): 3 h; AUC(0-t) (clinical; [12]): 6810 ng·h/mL; inhibition of metabolic enzymes and transporters [10]: lack of inhibition
4 | NS(=O)(=O)c1cc2c(cc1Cl)NCNS2(=O)=O [hydrochlorothiazide] | – | – | – | – | – | – | – | – | – | – | – | – | – | – | – | – | – | – | – | – | effect on the clearance of metformin [11]: no significant effect
